Results on 1 substance are retold here after patent US8080535B2, “Hyaluronic acid nutritional supplements and methods of using the same” (Leneau Holdings, LLC, priority 2001, dated 2011).

In assay [1] the test system is patients suffering from osteoarthritis. Kind of assay: Oral ingestion of hyaluronic acid by patients suffering from osteoarthritis, subjective pain feeling. Format: in vivo, human. To be noted: of sixty-seven osteoarthritis patients; 1-4 mg oral 1 to 4 times a day. How it is done: A study involving sixty-seven patients suffering from osteoarthritis was undertaken to determine the effectiveness of oral ingestion of hyaluronic acid. Each patient received 1-4 mg of hyaluronic acid by oral ingestion administration 1 to 4 times a day over periods ranging from about […], during which period the patients' subjective pain feeling was reported. […] Fourteen patients reported no change in the amount of pain they felt.

In assay [2] the test system is human patients suffering pain and discomfort associated with fibromyalgia. Nature of the assay: Oral ingestion of hyaluronic acid by patients afflicted with fibromyalgia, subjective pain feeling. It is filed as in vivo. How it is done: Another study involving thirty-five human patients suffering pain and discomfort associated with fibromyalgia was undertaken to evaluate the effectiveness of oral ingestion of hyaluronic acid. Each patient received about 1 to about 6 mg of hyaluronic acid by oral ingestion administration of concentrate diluted into beverages or food. Over a treatment period of about 1 to about 14 months, the patients' subjective pain feeling was reported. Twenty-one patients reported no pain after hyaluronic acid therapy. Six patients (17.1%) reported some (60%) degree of pain relief. Eight patients reported no change in the amount of pain they felt.

Assay [3] concerns human patients suffering pain and discomfort associated with rheumatoid arthritis. Nature of the assay: Oral ingestion of hyaluronic acid by patients afflicted with rheumatoid arthritis, subjective pain score 0 to 10. To be noted: scale 0 to 10; about 1 mg oral solution for 30 days; average prior to the study 8.47; 15 of seventeen patients responded. It is filed as in vivo. Here is the method: Another study involving seventeen human patients suffering pain and discomfort associated with rheumatoid arthritis was undertaken. Each patient received about 1 mg of an oral hyaluronic acid solution for a period of 30 days. Each patient was asked to evaluate his or her subjective pain feeling and report the score on a scale of 0 to 10, wherein 0 means no pain and/or stiffness whatsoever and 10 means worst imaginable pain and/or stiffness. Prior to the start of the study, the patients reported as follows: […]

Setting [4] is: of thirty-five fibromyalgia patients, about 1 to about 6 mg oral, about 1 to about 14 months.

In the case of hyaluronic acid, in assay [1], the “patients reported no change in the amount of pain” value is “Fourteen”; the “patients reported no pain and increased range of motion” value is reported as “Twenty-nine”; the “patients reported no pain and increased range of motion (percent of patients)” value is reported as 43.3%; the “patients reported some degree of pain relief and some increased range of motion” value is reported as “Twenty-four”. Besides, the “patients reported some degree of pain relief and some increased range of motion (percent of patients)” value in assay [1] is listed as 35.8%. Moreover, in assay [2] (setting [4]), the “patients reported no change in the amount of pain” value is listed as “Eight”, the “patients reported no pain after hyaluronic acid therapy” value is “Twenty-one”, the “patients reported some degree of pain relief” value is listed as “Six” and the “patients reported some degree of pain relief (percent of patients)” value is given as 17.1%. Besides, in assay [2] (printed in brackets in the sentence on the six patients with some pain relief), the “some (60%) degree of pain relief” value came to 60%. The “average subjective pain and/or stiffness score at completion of the 30-day study” value in assay [3] came to 3.47.
